{"source": "patent US20260262643A1", "about": "“HERBICIDAL BENZOXAZINES” (FMC CORPORATION, priority 2022, published 2026)", "key": {"kochia [1]": {"system": "kochia", "assay": "Test C postemergence", "format": "in vivo, Bassia scoparia", "settings": "10 days, 0 to 100 scale, 0 no effect, 100 complete control", "outline": "(§1)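 Seeds in loam–sand blend received preemergence directed soil spray of test chemicals in non-phytotoxic solvent with surfactant; postemergence treatment was applied at one- to two-leaf stage (2–10 cm). After 10 days in greenhouse, injury rated visually versus untreated controls, 0 (no effect) to 100 (complete control).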"}, "blackgrass [2]": {"system": "blackgrass", "assay": "Test C postemergence", "format": "in vivo, Alopecurus myosuroides", "settings": "10 days, 0 to 100 scale, 0 no effect, 100 complete control", "outline": "as §1"}, "soybean [3]": {"system": "soybean", "assay": "Test C postemergence", "format": "in vivo, Glycine max", "settings": "10 days, 0 to 100 scale, 0 no effect, 100 complete control", "source_text": "(§2) Seeds of plant species selected from barnyardgrass (Echinochloa crusgalli), blackgrass (Alopecurus myosuroides), corn (Zea mays), foxtail, giant (giant foxtail, Setaria faberi), green foxtail (Setaria viridis), goosegrass (Eleusine indica), kochia (Bassia scoparia), oat, wild (wild oat, Avena fatua), pigweed, palmer (palmer amaranth, palmer pigweed, Amaranthus palmeri), Pigweed, Redroot (redroot pigweed, Amaranthus retroflexus), ragweed (common ragweed, Ambrosia artemisiifolia), ryegrass, Italian ([…] ryegrass, Lolium multiflorum), soybean (Glycine max), and wheat (Triticum aestivum) were planted into a blend of loam soil and sand and treated preemergence with a directed soil spray using test chemicals formulated in a non-phytotoxic solvent mixture which included a surfactant. At the same time, plants selected from these crops and weed species and also galium (catchweed bedstraw, Galium aparine) and horseweed (Erigeron canadensis) were planted in pots containing the same blend of loam soil and sand and treated with postemergence applications of test chemicals formulated in the same manner. Plants ranged in height from 2 to 10 cm and were in the one- to two-leaf stage for the postemergence treatment. Treated plants and untreated controls were maintained in a greenhouse for 10 days, after which time all treated plants were compared to untreated controls and visually evaluated for injury. Plant response ratings, summarized in Table C, are based on a 0 to 100 scale where 0 is no effect and 100 is complete control. A dash (-) response means no test result."}, "kochia [4]": {"system": "kochia", "assay": "Test C preemergence", "format": "in vivo, Bassia scoparia", "outline": "as §1"}, "oat, wild [5]": {"system": "oat, wild", "assay": "Test C preemergence", "format": "in vivo, Avena fatua", "source_text": "as §2"}, "barnyardgrass [6]": {"system": "barnyardgrass", "assay": "Test C postemergence", "format": "in vivo, Echinochloa crusgalli", "settings": "10 days, 0 to 100 scale, 0 no effect, 100 complete control", "outline": "as §1"}, "corn [7]": {"system": "corn", "assay": "Test C postemergence", "format": "in vivo, Zea mays", "settings": "10 days, 0 to 100 scale, 0 no effect, 100 complete control", "outline": "as §1"}, "wheat [8]": {"system": "wheat", "assay": "Test C postemergence", "format": "in vivo, Triticum aestivum", "settings": "10 days, 0 to 100 scale, 0 no effect, 100 complete control", "source_text": "as §2"}, "pigweed, palmer [9]": {"system": "pigweed, palmer", "assay": "Test C postemergence", "format": "in vivo, Amaranthus palmeri", "settings": "10 days, 0 to 100 scale, 0 no effect, 100 complete control", "outline": "as §1"}, "ryegrass, Italian [10]": {"system": "ryegrass, Italian", "assay": "Test C preemergence", "format": "in vivo, Lolium multiflorum", "outline": "as §1"}, "horseweed": {"system": "horseweed", "assay": "Test C postemergence", "format": "in vivo, Erigeron canadensis", "settings": "10 days, 0 to 100 scale, 0 no effect, 100 complete control", "outline": "as §1"}, "green foxtail [11]": {"system": "green foxtail", "assay": "Test C postemergence", "format": "in vivo, Setaria viridis", "settings": "10 days, 0 to 100 scale, 0 no effect, 100 complete control", "outline": "as §1"}, "ragweed [12]": {"system": "ragweed", "assay": "Test C preemergence", "format": "in vivo, Ambrosia artemisiifolia", "outline": "as §1"}, "blackgrass [13]": {"system": "blackgrass", "assay": "Test C preemergence", "format": "in vivo, Alopecurus myosuroides", "outline": "as §1"}, "corn [14]": {"system": "corn", "assay": "Test C preemergence", "format": "in vivo, Zea mays", "outline": "as §1"}, "galium": {"system": "galium", "assay": "Test C postemergence", "format": "in vivo, Galium aparine", "settings": "10 days, 0 to 100 scale, 0 no effect, 100 complete control", "outline": "as §1"}, "barnyardgrass [15]": {"system": "barnyardgrass", "assay": "Test C preemergence", "format": "in vivo, Echinochloa crusgalli", "outline": "as §1"}, "oat, wild [16]": {"system": "oat, wild", "assay": "Test C postemergence", "format": "in vivo, Avena fatua", "settings": "10 days, 0 to 100 scale, 0 no effect, 100 complete control", "source_text": "as §2"}, "wheat [17]": {"system": "wheat", "assay": "Test C preemergence", "format": "in vivo, Triticum aestivum", "source_text": "as §2"}, "ryegrass, Italian [18]": {"system": "ryegrass, Italian", "assay": "Test C postemergence", "format": "in vivo, Lolium multiflorum", "settings": "10 days, 0 to 100 scale, 0 no effect, 100 complete control", "outline": "as §1"}, "ragweed [19]": {"system": "ragweed", "assay": "Test C postemergence", "format": "in vivo, Ambrosia artemisiifolia", "settings": "10 days, 0 to 100 scale, 0 no effect, 100 complete control", "outline": "as §1"}, "pigweed, palmer [20]": {"system": "pigweed, palmer", "assay": "Test C preemergence", "format": "in vivo, Amaranthus palmeri", "outline": "as §1"}, "soybean [21]": {"system": "soybean", "assay": "Test C preemergence", "format": "in vivo, Glycine max", "source_text": "as §2"}, "green foxtail [22]": {"system": "green foxtail", "assay": "Test C preemergence", "format": "in vivo, Setaria viridis", "outline": "as §1"}, "[23]": {"settings": "Preemergence, 31 g ai/ha, 0 to 100 scale, 0 no effect, 100 complete control"}, "[24]": {"settings": "Test C, preemergence, 125 g ai/ha, 0 to 100 scale (0 no effect, 100 complete control)"}}}
{"compound": "Cc1ccc(-n2cnc(C3(O)CCCC3)n2)cc1C(=O)N1C[C@H](C)Oc2c(Cl)cccc21", "note": "[Compound 193]", "values": [{"measurement": "Plant response rating, Kochia", "setting": "kochia [1]; 125 g ai/ha, postemergence", "result": 80}, {"measurement": "Plant response rating, Kochia", "setting": "kochia [1]; Postemergence, 31 g ai/ha", "result": 20}, {"measurement": "Plant response rating, Blackgrass", "setting": "blackgrass [2]; 125 g ai/ha, postemergence", "result": 60}, {"measurement": "Plant response rating, Blackgrass", "setting": "blackgrass [2]; Postemergence, 31 g ai/ha", "result": 0}, {"measurement": "Plant response rating, Soybean", "setting": "soybean [3]; 125 g ai/ha, postemergence", "result": 100}, {"measurement": "Plant response rating, Soybean", "setting": "soybean [3]; Postemergence, 31 g ai/ha", "result": 100}, {"measurement": "Plant response rating, Kochia", "setting": "kochia [4]; [23]", "result": 60}, {"measurement": "Kochia plant response rating", "setting": "kochia [4]; [24]", "result": 100}, {"measurement": "Plant response rating, Oat, Wild", "setting": "oat, wild [5]; [23]", "result": 0}, {"measurement": "Oat, Wild plant response rating", "setting": "oat, wild [5]; [24]", "result": 20}, {"measurement": "Plant response rating, Barnyardgrass", "setting": "barnyardgrass [6]; 125 g ai/ha, postemergence", "result": 40}, {"measurement": "Plant response rating, Barnyardgrass", "setting": "barnyardgrass [6]; Postemergence, 31 g ai/ha", "result": 10}, {"measurement": "Plant response rating, Corn", "setting": "corn [7]; 125 g ai/ha, postemergence", "result": 0}, {"measurement": "Plant response rating, Corn", "setting": "corn [7]; Postemergence, 31 g ai/ha", "result": 0}, {"measurement": "Plant response rating, Wheat", "setting": "wheat [8]; 125 g ai/ha, postemergence", "result": 10}, {"measurement": "Plant response rating, Wheat", "setting": "wheat [8]; Postemergence, 31 g ai/ha", "result": 10}, {"measurement": "Plant response rating, Pigweed, Palmer", "setting": "pigweed, palmer [9]; 125 g ai/ha, postemergence", "result": 70}, {"measurement": "Plant response rating, Pigweed, Palmer", "setting": "pigweed, palmer [9]; Postemergence, 31 g ai/ha", "result": 20}, {"measurement": "Plant response rating, Ryegrass, Italian", "setting": "ryegrass, Italian [10]; [23]", "result": 60}, {"measurement": "Ryegrass, Italian plant response rating", "setting": "ryegrass, Italian [10]; [24]", "result": 80}, {"measurement": "Plant response rating, Horseweed", "setting": "horseweed; 125 g ai/ha, postemergence", "result": 0}, {"measurement": "Plant response rating, Horseweed", "setting": "horseweed; Postemergence, 31 g ai/ha", "result": 0}, {"measurement": "Plant response rating, Foxtail, Green", "setting": "green foxtail [11]; 125 g ai/ha, postemergence", "result": 80}, {"measurement": "Plant response rating, Foxtail, Green", "setting": "green foxtail [11]; Postemergence, 31 g ai/ha", "result": 30}, {"measurement": "Plant response rating, Ragweed", "setting": "ragweed [12]; [23]", "result": 0}, {"measurement": "Ragweed plant response rating", "setting": "ragweed [12]; [24]", "result": 60}, {"measurement": "Plant response rating, Blackgrass", "setting": "blackgrass [13]; [23]", "result": 0}, {"measurement": "Blackgrass plant response rating", "setting": "blackgrass [13]; [24]", "result": 0}, {"measurement": "Plant response rating, Corn", "setting": "corn [14]; [23]", "result": 0}, {"measurement": "Corn plant response rating", "setting": "corn [14]; [24]", "result": 0}, {"measurement": "Plant response rating, Galium", "setting": "galium; 125 g ai/ha, postemergence", "result": 100}, {"measurement": "Plant response rating, Galium", "setting": "galium; Postemergence, 31 g ai/ha", "result": 60}, {"measurement": "Plant response rating, Barnyardgrass", "setting": "barnyardgrass [15]; [23]", "result": 10}, {"measurement": "Barnyardgrass plant response rating", "setting": "barnyardgrass [15]; [24]", "result": 80}, {"measurement": "Plant response rating, Oat, Wild", "setting": "oat, wild [16]; 125 g ai/ha, postemergence", "result": 0}, {"measurement": "Plant response rating, Oat, Wild", "setting": "oat, wild [16]; Postemergence, 31 g ai/ha", "result": 0}, {"measurement": "Plant response rating, Wheat", "setting": "wheat [17]; [23]", "result": 0}, {"measurement": "Wheat plant response rating", "setting": "wheat [17]; [24]", "result": 0}, {"measurement": "Plant response rating, Ryegrass, Italian", "setting": "ryegrass, Italian [18]; 125 g ai/ha, postemergence", "result": 50}, {"measurement": "Plant response rating, Ryegrass, Italian", "setting": "ryegrass, Italian [18]; Postemergence, 31 g ai/ha", "result": 20}, {"measurement": "Plant response rating, Ragweed", "setting": "ragweed [19]; 125 g ai/ha, postemergence", "result": 60}, {"measurement": "Plant response rating, Ragweed", "setting": "ragweed [19]; Postemergence, 31 g ai/ha", "result": 50}, {"measurement": "Plant response rating, Pigweed, Palmer", "setting": "pigweed, palmer [20]; [23]", "result": 60}, {"measurement": "Pigweed, Palmer plant response rating", "setting": "pigweed, palmer [20]; [24]", "result": 90}, {"measurement": "Plant response rating, Soybean", "setting": "soybean [21]; [23]", "result": 0}, {"measurement": "Soybean plant response rating", "setting": "soybean [21]; [24]", "result": 90}, {"measurement": "Plant response rating, Foxtail, Green", "setting": "green foxtail [22]; [23]", "result": 0}, {"measurement": "Foxtail, Green plant response rating", "setting": "green foxtail [22]; [24]", "result": 0}]}
